Data taken from patent US20110046039A1, “POST-EXPOSURE PROPHYLAXIS AND TREATMENT OF INFECTIONS” (priority 2007, published 2011).
Where a SMILES comes first, the peptide text is derived from it. The star is where a group is joined. Cbz = O=C(OCc1ccccc1)*; CH2F = FC*

Tests used:
[1] = tested on: anthrax spores; design: species or system DBA/2 mice; conditions: mouse, in vivo
[2] = tested on: cultured macrophages; conditions: cited from earlier work
[3] = tested on: livers of anthrax-challenged mice; conditions: mouse, in vivo; cited from earlier work

CNC(=O)[C@H]1O[C@@H](n2cnc3c(NCc4cccc(I)c4)nc(Cl)nc32)[C@H](O)[C@@H]1O [Cl-IB-MECA, 2-chloro-N^6-(3-iodobenzyl)-adenosine-5′-N-methyluronamide]
protection of exposed animals [1]: 40% | protection of mice against post-exposure anthrax [1]: protect mice against post-exposure anthrax

CNC(=O)[C@H]1O[C@@H](n2cnc3c(NCc4cccc(I)c4)ncnc32)[C@H](O)[C@@H]1O [IB-MECA, N^6-(3-iodobenzyl)-adenosine-5′-N-methyluronamide]
protection of mice against post-exposure anthrax [1]: protect mice against post-exposure anthrax

O=C(O)c1cn(C2CC2)c2cc(N3CCNCC3)c(F)cc2c1=O [ciprofloxacin]
animals protected ([1]; ip, 50 mg/kg): 30%

COC(=O)C[C@H](NC(=O)[C@H](C)NC(=O)[C@@H](NC(=O)OCc1ccccc1)C(C)C)C(=O)CF [z-VAD, z-Val-Ala-Asp(OMe)-fluoromethylketone] (Cbz-Val-Ala-Asp(OMe)-CH2F)
anti-apoptotic effect [2]: protective anti-apoptopic effect | anti-apoptotic effect [3]: protective anti-apoptopic effect
